In ChEMBL document CHEMBL1159273, “[Cytotoxicity of aspidospermane indole alkaloids with a modified tryptamine chain]” (J Nat Prod, 1995):

Test system: L1210
Test: Cytotoxicity against mouse L1210 cells after 48 hrs by MTT method
Format: functional, cell-based
Details: L1210, 48 h

Structure (SMILES)	IC50 [µM]
CC[C@]12CCCN3C[C@@H](Br)[C@@]4(c5ccccc5N[C@H]4[C@@](Cl)(C(=O)OC)C1)[C@@H]32	46.8
CC[C@]12CCCN3[C@@H](OC)C[C@]4(C(=Nc5ccccc54)[C@@](Cl)(C(=O)OC)C1)[C@@H]32	3.1
CC[C@]12CCCN3CC[C@@]4(c5ccccc5N5[C@H]4[C@]5(C(=O)OC)C1)[C@@H]32	156
CC[C@]12CCCN3C[C@@H](Br)[C@@]4(c5ccccc5N5[C@H]4[C@]5(C(=O)OC)C1)[C@@H]32	141
CC[C@]12CCC[N+]3([O-])CC[C@]4(C(=Nc5ccccc54)[C@@](Cl)(C(=O)OC)C1)[C@H]23 (some centres not stated)	27.4
CC[C@]12CCC[N+]3([O-])C[C@@H](Br)[C@]4(C(=Nc5ccccc54)[C@@](Cl)(C(=O)OC)C1)[C@H]23 (some centres not stated)	14.1
COc1cccc2c1C(=O)c1c(O)c3c(c(O)c1C2=O)C[C@@](O)(C(=O)CO)C[C@@H]3O[C@H]1C[C@H](N)[C@H](O)[C@H](C)O1 [DOXORUBICIN]	0.03
